Test results taken from patent US10155721B2, “Lignanamides and a method of treating neurodegenerative diseases by using the same” (Macau University of Science and Technology, priority 2017, dated 2018).

Assays:
Assay type in all cases: cell-based
[1] = tested on: PC12 cells; assay: Effect of the compounds on viability of PC12 cells; conditions: final concentration 50 μM, FIGS. 12A to 12C
Experimental: (§1) In one example embodiment, effects of the Sativamide A and the Sativamide B ER stress-induced neurotoxicity on a neuroblastoma cell model (PC12 cells) are tested. PC-12 cells are purchased from the American Type Culture Collection (ATCC). PC-12 cells are cultured in DMEM medium (Invitrogen) supplemented with 100 U/ml penicillin, 100 μg/mL streptomycin, and 10% horse serum and 5% fetal bovine serum (Gibco, Carlsbad, USA). The cells are incubated at 37° C. in a humidified atmosphere of 5% CO2 and 95% air. PC12 cells are seeded into 96-well culture plates (5.0×10^3 cells/well) and cultured under standard conditions for 12 h. Cells are then treated with the Sativamide A and the Sativamide B at concentrations of 12.5 μM, 25 μM and 50 μM or a vehicle for another 12 h. After treatment, the whole medium is replaced with fresh medium containing tunicamycin (Tm) (0.1 nM or 1.0 μM) or thapsigargin (Tg) (10 nM or 100 nM) and the cells are incubated for additional 48 h. After incubation, supernatant is changed by fresh medium and thiazolyl blue tetrazolium bromide (MTT) is given at a concentration of 0.5 mg/mL. After incubation at 37° C. for 4 h, the absorbance is measured at 570 nm with a micro-plate reader.

[2] = tested on: SH-SY5Y cells; assay: MTT assay, Tm-induced cytotoxicity in SH-SY5Y cells (FIG. 13B); conditions: pre-treatment 12.5, 25, 50 μM for 12 h, then inducer 48 h
Experimental: (§2) In one example embodiment, effects of the Sativamide A and the Sativamide B on ER stress-induced neurotoxicity on a neuroblastoma cell models (SH-SY5Y cells) are tested. SH-SY5Y cells are purchased from the American Type Culture Collection (ATCC). SH-SY5Y cells are cultured in 1:1 mixture of DMEM and F12 medium containing 10% fetal bovine serum (Gibco, Carlsbad, USA). SH-SY5Y cells are incubated at 37° C. in a humidified atmosphere of 5% CO2 and 95% air. SH-SY5Y cells are seeded into 96-well culture plates (5.0×10^3 cells/well) and cultured under standard conditions for 12 h. Cells are then treated with the Sativamide A and the Sativamide B at concentrations of 12.5 μM, 25 μM and 50 μM or a vehicle for another 12 h. After treatment, the whole medium is replaced with fresh medium containing Tm (0.1 or 1.0 μM) or Tg (10 or 100 nM) and cells are incubated for additional 48 h. After incubation, supernatant is changed by fresh medium and MTT is given at a concentration of 0.5 mg/mL. After incubation at 37° C. for 4 h, the absorbance is measured at 570 nm with a micro-plate reader.

[3] = tested on: PC12 cells; assay: MTT assay and microscopy, tunicamycin (Tm)-induced cytotoxicity in PC12 cells; conditions: for cell death and cell growth induced by Tm (microscopic observations): PC12 cells pre-treated with 50 μM, FIG. 12A; for Tm-induced PC12 cell toxicity (MTT assay): pre-treatment 12.5, 25, 50 μM for 12 h, then Tm 48 h, FIG. 12B
Experimental: as §1

[4] = tested on: PC12 cells; assay: MTT assay, thapsigargin (Tg)-induced cytotoxicity in PC12 cells; conditions: pre-treatment 12.5, 25, 50 μM for 12 h, then Tg 48 h; FIG. 12C
Experimental: as §1

[5] = tested on: SH-SY5Y cells; assay: MTT assay and microscopy, Tg-induced cytotoxicity in SH-SY5Y cells; conditions: for Tg-induced cell death and cell growth (microscopic observations): SH-SY5Y cells pre-treated with 50 μM, FIG. 13A; for ER stress-mediated Tg-induced cytotoxicity in SH-SY5Y cells (MTT assay): pre-treatment 12.5, 25, 50 μM for 12 h, then Tg 48 h, FIG. 13C
Experimental: as §2

[6] = tested on: SH-SY5Y cells; assay: Effect of the compounds on viability of SH-SY5Y cells; conditions: final concentration 50 μM, FIGS. 13A to 13C
Experimental: as §2

O=C(NCCc1ccc(O)cc1)C1=C[C@]23C=CC(=O)[C@@]2(O)c2cc(O)c(O)cc2[C@@H]3[C@H]1C(=O)NCCc1ccc(O)cc1 [Sativamide A]
adverse effects on cell viability [1]: no adverse effects on cell viability | Tg-induced SH-SY5Y cell toxicity (MTT assay, FIG. 13B) [2]: mitigate the Tg-induced SH-SY5Y cell toxicity in a dose-dependent manner | cell death and cell growth induced by Tm (microscopic observations) [3]: markedly reduced | Tm-induced PC12 cell toxicity (MTT assay) [3]: mitigate the Tm-induced PC12 cell toxicity in a dose-dependent manner | ER stress-mediated cytotoxicity in PC12 cells induced by Tg (MTT assay) [4]: suppress ER stress-mediated cytotoxicity in PC12 cells that is induced by Tg in a dose-dependent manner | Tg-induced cell death and cell growth (microscopic observations) [5]: markedly reduced | ER stress-mediated Tg-induced cytotoxicity in SH-SY5Y cells (MTT assay) [5]: suppress ER stress-mediated Tg-induced cytotoxicity in SH-SY5Y cells tin a dose-dependent manner | adverse effects on cell viability [6]: no adverse effects on cell viability

CO[C@]12C(=O)C=C[C@]13C=C(C(=O)NCCc1ccc(O)cc1)[C@H](C(=O)NCCc1ccc(O)cc1)[C@@H]3c1cc(O)c(O)cc12 [Sativamide B, 10-methoxyl-sativamide A]
adverse effects on cell viability [1]: no adverse effects on cell viability | Tg-induced SH-SY5Y cell toxicity (MTT assay, FIG. 13B) [2]: mitigate the Tg-induced SH-SY5Y cell toxicity in a dose-dependent manner | cell death and cell growth induced by Tm (microscopic observations) [3]: markedly reduced | Tm-induced PC12 cell toxicity (MTT assay) [3]: mitigate the Tm-induced PC12 cell toxicity in a dose-dependent manner | ER stress-mediated cytotoxicity in PC12 cells induced by Tg (MTT assay) [4]: suppress ER stress-mediated cytotoxicity in PC12 cells that is induced by Tg in a dose-dependent manner | Tg-induced cell death and cell growth (microscopic observations) [5]: markedly reduced | ER stress-mediated Tg-induced cytotoxicity in SH-SY5Y cells (MTT assay) [5]: suppress ER stress-mediated Tg-induced cytotoxicity in SH-SY5Y cells tin a dose-dependent manner | adverse effects on cell viability [6]: no adverse effects on cell viability
